Experimental data as given in patent US20130029942A1, “COMPOUNDS AND THERAPEUTICAL USES THEREOF” (Myrexis, Inc., priority 2003, published 2013).

Experiments:
T-47D cells = assay: Caspase cascade activation / induction of apoptosis in T-47D cells (fluorogenic N-(Ac-DEVD)-N'-ethoxycarbonyl-R110 substrate); format: cell-based, human; details: Homo sapiens, T47D; T-47D, 24 hr; read-out: T-47D (24 hr) EC50
[1] = tested on: P388 murine leukemia cell line; assay: P388 cytotoxicity (ATP-Lite, 72 hours); format: cell-based; details: Mus musculus, P388, 72 hours
Method: A P388 murine leukemia cell line was obtained from NCI, Frederick, Md. P388 cells were cultured in RPMI-1640 supplemented with 10% fetal bovine serum, 2 mM Glutamax, 1 mM sodium pyruvate, 0.1 mM non-essential amino acids and 10 mM HEPES. Cells were grown at 37° C. in a humidified 5% CO2 atmosphere. Exponentially growing P388 cells were plated at 5,000 cells/well in a 96-well flat-bottomed microtiter plate (Corning, Costar #3595). […] Cellular viability was determined 72 hours later by measuring intracellular ATP with ATP-Lite assay system. The effect of compounds on cell viability was calculated by comparing the ATP levels of cells exposed to test compound with those of cells exposed to DMSO. […] Data was analyzed by Prism software (GraphPad; San Diego, Calif.) by fitting it to a sigmoidal dose response curve.

EC50 (T-47D cells)	Structure (SMILES)	IC50 [1]
> 10 µM	Cc1nc(N(C)c2ccncc2)c2ccccc2n1 [Example 136, (2-Methyl-quinazolin-4-yl)-(pyridin-4-yl)-methyl-amine]	–
> 10 µM	COc1ccc(Nc2nc(C)nc3ccccc23)nc1 [Example 137, (5-Methoxy-pyridin-2-yl)-(2-methyl-quinazolin-4-yl)-amine]	–
0.015 µM	COc1ccc(N(C)c2nc(C)nc3ccccc23)nc1 [Example 138, (5-Methoxy-pyridin-2-yl)-(2-methyl-quinazolin-4-yl)-methyl-amine]	–
4.66 µM	COc1ccc(N(c2nc(C)nc3ccccc23)C(F)F)cc1 [Example 139, Difluoromethyl-(4-methoxy-phenyl)-(2-methyl-quinazolin-4-yl)-amine]	–
0.027 µM	COc1ccc(N(C)c2nc(C)nc3nccnc23)cc1 [Example 140, (4-Methoxy-phenyl)-(2-methyl-pteridin-4-yl)-methyl-amine]	–
> 10 µM	COc1cnc(Nc2nc(C)nc3ccccc23)nc1 [Example 141, (5-Methoxy-pyrimidin-2-yl)-(2-methyl-quinazolin-4-yl)-amine]	–
–	COC(=O)COc1ccc(N(C)c2nc(C)nc3ccccc23)cc1 [Example 143, {4-[Methyl-(2-methyl-quinazolin-4-yl)-amino]phenoxy}-acetic acid methyl ester]	2.2 µM
–	Cc1nc(N(C)c2ccc(OCC(=O)O)cc2)c2ccccc2n1 [Example 144, {4-[Methyl-(2-methyl-quinazolin-4-yl)-amino]phenoxy}-acetic acid]	1.7 µM
–	COc1ccc(N(C)c2nc(NCCN)nc3ccccc23)cc1 [Example 145, N^2-(2-Amino-ethyl)-N^4-(4-methoxy-phenyl)-N^4-methyl-quinazoline-2,4-diamine]	0.038 µM
–	COc1ccc(N(C)c2nc(OC(C)C)nc3ccccc23)cc1 [Example 156, (2-Isopropoxy-quinazolin-4-yl)-(4-methoxy-phenyl)-methyl-amine]	0.006 µM
–	CNc1nc(N(C)c2ccc(OC)c(OC)c2)c2ccccc2n1 [Example 167, N^4-(3,4-Dimethoxy-phenyl)-N^2,N^4-dimethyl-quinazoline-2,4-diamine]	0.015 µM
–	COc1ccc(N(C)c2nc(N(C)C)nc3ccccc23)cc1OC [Example 168, N^4-(3,4-Dimethoxy-phenyl)-N^2,N^2,N^4-trimethyl-quinazoline-2,4-diamine]	0.045 µM
–	CONc1nc(N(C)c2ccc(OC)cc2)c2ccccc2n1 [Example 172, N-{4-[(4-Methoxy-phenyl)-methyl-amino]-quinazolin-2-yl}-O-methyl-hydroxylamine]	0.002 µM
–	COc1ccc(N(C)c2nc(N(C)CCO)nc3ccccc23)cc1 [Example 174, 2-({4-[(4-Methoxy-phenyl)-methyl-amino]-quinazolin-2-yl}-methyl-amino)-ethanol]	0.022 µM
–	COc1ccc(N(C)c2nc(NCCN)nc3ccc(OC)cc23)cc1 [Example 175, N^2-(2-Amino-ethyl)-6-methoxy-N^4-(4-methoxy-phenyl)-N^4-methyl-quinazoline-2,4-diamine]	5 µM
–	COc1ccc(N(C)c2nc(C)nc3sccc23)cc1 [Example 176, (4-Methoxy-phenyl)-methyl-(2-methyl-thieno[2,3-d]pyrimidin-4-yl)-amine]	0.003 µM
–	COc1ccccc1CN(C)c1nc(Cl)nc2ccccc12 [Example 177, (2-Chloro-quinazolin-4-yl)-(2-methoxy-benzyl)-methyl-amine]	0.97 µM
–	COc1ccc(N(C)c2nc(NCCCl)nc3ccccc23)cc1 [Example 178, N^2-(2-Chloro-ethyl)-N^4-(4-methoxy-phenyl)-N^4-methyl-quinazoline-2,4-diamine]	0.018 µM
–	COc1cccc(CN(C)c2nc(Cl)nc3ccccc23)c1 [Example 179, (2-Chloro-quinazolin-4-yl)-(3-methoxy-benzyl)-methyl-amine]	1.4 µM
–	COc1ccc(N(C)c2nc(NCCCO)nc3ccccc23)cc1 [Example 180, 3-{4-[(4-Methoxy-phenyl)-methyl-amino]-quinazolin-2-ylamino}-propan-1-ol]	0.005 µM
–	COc1ccc(N(C)c2nc(NCCCCO)nc3ccccc23)cc1 [Example 181, 4-{4-[(4-Methoxy-phenyl)-methyl-amino]-quinazolin-2-ylamino}-butan-1-ol]	0.013 µM
–	CCOc1nc(N(C)c2ccc(OC)cc2)c2ccccc2n1 [Example 182, (2-Ethoxy-quinazolin-4-yl)-(4-methoxy-phenyl)-methyl-amine]	2.3 µM

EC50 (T-47D cells)	Structure (SMILES)	IC50 [1]
–	COc1ccc(N(C)c2nc(N(C)CCCN(C)C)nc3ccccc23)cc1 [Example 183, N^2-(3-Dimethylamino-propyl)-N^4-(4-methoxy-phenyl)-N^2,N^4-dimethyl-quinazoline-2,4-diamine]	0.49 µM
–	COc1ccc(N(C)c2nc(NCCCCN)nc3ccccc23)cc1 [Example 184, N^2-(4-Amino-butyl)-N^4-(4-methoxy-phenyl)-N^4-methyl-quinazoline-2,4-diamine]	0.5 µM
–	COc1ccc(N(C)c2nc(C)nc3ccsc23)cc1 [Example 185, (4-Methoxy-phenyl)-methyl-(2-methyl-thieno[3,2-d]pyrimidin-4-yl)-amine]	0.007 µM
–	COc1ccc(N(C)c2nc(NCCO)nc3ccc([N+](=O)[O-])cc23)cc1 [Example 186, 2-{4-[(4-Methoxy-phenyl)-methyl-amino]-6-nitro-quinazolin-2-ylamino}-ethanol]	1.8 µM
–	COC(=O)CN(C)c1nc(N(C)c2ccc(OC)cc2)c2ccccc2n1 [Example 187, ({4-[(4-Methoxy-phenyl)-methyl-amino]-quinazolin-2-yl}-methyl-amino)-acetic acid methyl ester]	0.11 µM
–	COc1ccc(N(C)c2nc(C)nc3c2CCCC3)cc1 [Example 188, (4-Methoxy-phenyl)-methyl-(2-methyl-5,6,7,8-tetrahydro-quinazolin-4-yl)-amine]	0.002 µM
–	COc1ccc(N(C)c2nc(NCCO)nc3ccc(N)cc23)cc1 [Example 189, 2-{6-Amino-4-[(4-methoxy-phenyl)-methyl-amino]-quinazolin-2-ylamino}-ethanol]	0.46 µM
–	CONc1nc2c(c(N(C)c3ccc(OC)cc3)n1)CCCC2 [Example 190, N-{4-[(4-Methoxy-phenyl)-methyl-amino]-5,6,7,8-tetrahydro-quinazolin-2-yl}-O-methyl-hydroxylamine]	0.006 µM
–	CCOC(=O)CNc1nc2c(c(N(C)c3ccc(OC)cc3)n1)CCCC2 [Example 191, {4-[(4-Methoxy-phenyl)-methyl-amino]-5,6,7,8-tetrahydro-quinazolin-2-ylamino}-acetic acid ethyl ester]	0.47 µM
–	CNc1nc2c(c(N(C)c3ccc(OC)cc3)n1)CCCC2 [Example 192, N^4-(4-Methoxy-phenyl)-N^2,N^4-dimethyl-5,6,7,8-tetrahydro-quinazoline-2,4-diamine]	0.019 µM
–	COc1ccc(N(C)c2nc(NCCO)nc3c2CCCC3)cc1 [Example 194, 2-{4-[(4-Methoxy-phenyl)-methyl-amino]-5,6,7,8-tetrahydro-quinazolin-2-ylamino}-ethanol]	0.02 µM
–	COc1ccc(N(C)c2nncc3ccc(F)cc23)cc1 [Example 195, (7-Fluoro-phthalazin-1-yl)-(4-methoxy-phenyl)-methyl-amine]	1.5 µM
–	COc1ccc(N(C)c2nncc3cc(F)ccc23)cc1 [Example 196, (6-Fluoro-phthalazin-1-yl)-(4-methoxy-phenyl)-methyl-amine]	0.33 µM
–	CONc1nc2c(c(N(C)c3ccc(OC)cc3)n1)CCC2 [Example 197, N-{4-[(4-Methoxy-phenyl)-methyl-amino]-6,7-dihydro-5H-cyclopentapyrimidin-2-yl}-O-methyl-hydroxylamine]	0.008 µM
–	COc1ccc(N(C)c2nc(OC(C)C)nc3cccc(F)c23)cc1 [Example 198, (5-Fluoro-2-isopropoxy-quinazolin-4-yl)-(4-methoxy-phenyl)-methyl-amine]	0.003 µM
–	COc1ccc(N(C)c2nc(C(F)(F)F)nc3ccccc23)cc1 [Example 199, (4-Methoxy-phenyl)-methyl-(2-trifluoromethyl-quinazolin-4-yl)-amine]	0.003 µM
–	CNc1nc2c(c(N(C)c3ccc(OC)cc3)n1)CCC2 [Example 200, N^4-(4-Methoxy-phenyl)-N^2,N^4-dimethyl-6,7-dihydro-5H-cyclopentapyrimidine-2,4-diamine]	0.007 µM
–	CNc1nc2c(c(N(C)c3ccc(OC)cc3)n1)CCCCC2 [Example 201, N4-(4-Methoxy-phenyl)-N2,N4-dimethyl-6,7,8,9-tetrahydro-5H-cycloheptapyrimidine-2,4-diamine]	0.076 µM
–	CCOC(=O)CNc1nc2c(c(N(C)c3ccc(OC)cc3)n1)CCC2 [Example 202, {4-[(4-Methoxy-phenyl)-methyl-amino]-6,7-dihydro-5H-cyclopentapyrimidin-2-ylamino}-acetic acid ethyl ester]	0.3 µM
–	COc1ccc(N(C)c2nc(CNC(C)=O)nc3ccccc23)cc1 [Example 203, N-{4-[(4-Methoxy-phenyl)-methyl-amino]-quinazolin-2-ylmethyl}-acetamide]	0.019 µM
–	Cc1nc(N(C)c2ccc(N(C)C(=O)OC(C)(C)C)cc2)c2ccccc2n1 [Example 204, Methyl-{4-[methyl-(2-methyl-quinazolin-4-yl)-amino]-phenyl}-carbamic acid tert-butyl ester]	0.46 µM
–	COc1ccc(N(C)c2nc(CN)nc3ccc(F)cc23)cc1 [Example 205, (2-Aminomethyl-6-fluoro-quinazolin-4-yl)-(4-methoxy-phenyl)-methyl-amine]	0.019 µM
